Test results reported in US20240041042A1, “1-(PYRIDYL)-5-AZINYLPYRAZOLE DERIVATIVES, AND THEIR USE FOR CONTROL OF UNDESIRED PLANT GROWTH” (Bayer Aktiengesellschaft, priority 2020, published 2024).
Like-named read-outs stand apart in the source and are kept apart here.

Key:
Type in all cases: in vivo
Viola tricolor (VIOTR) = experiment: Post-emergence herbicidal action against VIOTR
In short: (§1)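 Rates were 320 g/ha or below, applied as aqueous WP/EC spray with 0.5% additive (600 l/ha) onto one-leaf-stage plants. About 3 weeks later in the greenhouse, damage was scored visually against untreated plants on a 0–100% scale, where 100% means plants died.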

[1] = tested on: Amaranthus retroflexus (AMARE); experiment: Post-emergence herbicidal action against AMARE
In short: as §1

[2] = tested on: Digitaria sanguinalis (DIGSA); experiment: Post-emergence herbicidal action against DIGSA; conditions: visual rating about 3 weeks after treatment
Description: Seeds of monocotyledonous and dicotyledonous weeds and crop plants are placed in sandy loam in plastic or organic planting pots, covered with soil and cultivated in a greenhouse under controlled growth conditions. 2 to 3 weeks after sowing, the test plants are treated at the one-leaf stage. The compounds of the invention, formulated in the form of wettable powders (WP) or as emulsion concentrates (EC), are then sprayed onto the green parts of the plants as aqueous suspension or emulsion with addition of 0.5% additive at a water application rate of 600 l/ha (converted). After the test plants have been kept in the greenhouse under optimum growth conditions for about 3 weeks, the activity of the preparations is rated visually in comparison to untreated controls. For example, 100% activity=the plants have died, 0% activity=like control plants.
Tables B1 to B13 below show the effects of selected compounds of the general formula (I) according to Table 1 on various harmful plants and at an application rate corresponding to 320 g/ha or lower, which were obtained by the experimental procedure mentioned above. The appendices “a”, “b” and “c” give differentiation by dosage used with otherwise the same harmful plants tested.

Lolium rigidum (LOLRI) = experiment: Post-emergence herbicidal action against LOLRI
In short: as §1

Avena fatua (AVEFA) = experiment: Post-emergence herbicidal action against AVEFA; conditions: visual rating about 3 weeks after treatment
In short: as §1

[3] = tested on: Polygonum convolvulus (POLCO); experiment: Post-emergence herbicidal action against POLCO
In short: as §1

[4] = tested on: Alopecurus myosuroides (ALOMY); experiment: Post-emergence herbicidal action against ALOMY; conditions: visual rating about 3 weeks after treatment vs untreated controls (100% = plants have died, 0% = like control plants)
In short: as §1

[5] = tested on: Verconica persica (VERPE); experiment: Post-emergence herbicidal action against VERPE
In short: as §1

[6] = tested on: Echinochloa crus-galli (ECHCG); experiment: Post-emergence herbicidal action against ECHCG
In short: as §1

[7] = tested on: Abutilon theophrasti (ABUTH); experiment: Post-emergence herbicidal action against ABUTH; conditions: visual rating about 3 weeks after treatment vs untreated controls (100% = plants have died, 0% = like control plants)
In short: as §1

Setaria viridis (SETVI) = experiment: Post-emergence herbicidal action against SETVI
In short: as §1

Zea mays (ZEAMX) = conditions: for Post-emergence action against ZEAMX in % (crop plant compatibility): 20 g/ha, effect in comparison to untreated controls; for Post-emergence action against ZEAMX in %: crop plant compatibility, 80 g/ha, effect vs untreated controls
In short: (§2)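 Percent effect on the crop was judged by eye against untreated controls, where 0% means like control and 100% means dead plants. Plants had been sprayed post-emergence at the one-leaf stage and then kept under optimum greenhouse conditions for about 3 weeks.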

[8] = tested on: Pharbitis purpurea (PHBPU); experiment: Post-emergence herbicidal action against PHBPU
In short: as §1

[9] = tested on: Matricaria inodora (MATIN); experiment: Post-emergence herbicidal action against MATIN
In short: as §1

Oryza sativa (ORYSA) = conditions: crop plant compatibility
In short: as §2

[10] = 80 g/ha, visual rating about 3 weeks after treatment vs untreated controls (100% = plants have died, 0% = like control plants)
[11] = 320 g/ha, visual rating about 3 weeks after treatment
[12] = 20 g/ha, effect vs untreated controls
[13] = 80 g/ha, effect in comparison to untreated controls

| SMILES | Post-emergence action against ZEAMX in % (crop plant compatibility) (Zea mays (ZEAMX)) | Post-emergence action against ORYSA in % (Oryza sativa (ORYSA); [12]) | Post-emergence action against VIOTR in % (Viola tricolor (VIOTR); 80 g/ha) | Post-emergence action against VIOTR in % (Viola tricolor (VIOTR); 320 g/ha) | Post-emergence action against DIGSA in % ([2]; 320 g/ha) | Post-emergence action against LOLRI in % (Lolium rigidum (LOLRI); dosage 80 g/ha) | Post-emergence action against LOLRI in % (Lolium rigidum (LOLRI); dosage 320 g/ha) | Post-emergence action against AVEFA in % (Avena fatua (AVEFA); 80 g/ha) | Post-emergence action against AVEFA in % (Avena fatua (AVEFA); 320 g/ha) | Post-emergence action against POLCO in % ([3]; dosage 320 g/ha) | Post-emergence action against ALOMY in % ([4]; 320 g/ha) | Post-emergence action against VERPE in % ([5]; 320 g/ha, VERPE) | Post-emergence action against VERPE in % ([5]; dosage 80 g/ha) | Post-emergence action against ECHCG in % ([6]; dosage 320 g/ha) | Post-emergence action against SETVI in % (Setaria viridis (SETVI); dosage 80 g/ha) | Post-emergence action against SETVI in % (Setaria viridis (SETVI); dosage 320 g/ha) | Post-emergence action against PHBPU in % ([8]; dosage 320 g/ha) | Post-emergence action against DIGSA in % ([2]; 80 g/ha) | Post-emergence action against MATIN in % ([9]; dosage 320 g/ha) | Post-emergence action against ECHCG in % ([6]; dosage 80 g/ha) | further results |
| --- | --- | --- | --- | --- | --- | --- | --- | --- | --- | --- | --- | --- | --- | --- | --- | --- | --- | --- | --- | --- | --- |
| COC(=O)C(C)OC(=O)C(C)Oc1nn(-c2ccccn2)c(-c2cncc(F)c2)c1Br (mixture of isomers) [Example I-176] |  | 0% |  | 80% | 90% | 80% | 80% |  |  | 80% | 90% |  |  | 90% | 80% | 80% |  | 80% | 80% | 80% | Post-emergence action against POLCO in % ([3]; dosage 80 g/ha): 80%; Post-emergence action against ABUTH in % ([7]; 320 g/ha): 80%; Post-emergence action against ORYSA in % (Oryza sativa (ORYSA); [13]): 10% |
| C[C@@H](Oc1nn(-c2ncccc2F)c(-c2cncc(F)c2)c1C1CC1)C(=O)O [Example I-166] | 10% | 0% | 80% | 80% | 90% | 80% | 90% | 90% | 90% | 80% | 90% | 80% | 80% | 80% | 90% | 90% | 90% | 90% | 90% | 80% | Post-emergence action against POLCO in % ([3]; dosage 80 g/ha): 80%; Post-emergence action against ALOMY in % ([4]; 80 g/ha): 90%; Post-emergence action against MATIN in % ([9]; dosage 80 g/ha): 80%; Post-emergence action against ORYSA in % (Oryza sativa (ORYSA); [13]): 20%; Post-emergence action against PHBPU in % ([8]; dosage 80 g/ha): 80% |
| COC(=O)[C@@H](C)Oc1nn(-c2ccccn2)c(-c2ccc(F)nc2)c1Br [Example I-252] | 10% | 10% |  | 80% | 90% | 80% | 80% | 80% | 80% | 80% | 90% | 80% | 80% | 90% | 80% | 80% | 90% | 90% | 80% | 80% | Post-emergence action against ALOMY in % ([4]; 80 g/ha): 80% |
| CCOC(=O)COc1nn(-c2ncccc2F)c(-c2cncc(F)c2)c1C(F)(F)F [Example I-141] |  | 10% | 80% | 80% | 90% |  | 90% |  | 80% | 80% | 90% | 90% | 90% | 80% | 90% | 90% | 90% | 90% | 90% | 80% | Post-emergence action against AMARE in % [1, 10]: 80%; Post-emergence action against AMARE in % [1, 11]: 90%; Post-emergence action against POLCO in % ([3]; dosage 80 g/ha): 80%; Post-emergence action against MATIN in % ([9]; dosage 80 g/ha): 80%; Post-emergence action against PHBPU in % ([8]; dosage 80 g/ha): 80% |

Second part, led by results:

| Post-emergence action against ZEAMX in % (crop plant compatibility) (Zea mays (ZEAMX)) | Post-emergence action against ORYSA in % (Oryza sativa (ORYSA); [12]) | SMILES | Post-emergence action against VIOTR in % (Viola tricolor (VIOTR); 80 g/ha) | Post-emergence action against VIOTR in % (Viola tricolor (VIOTR); 320 g/ha) | Post-emergence action against DIGSA in % ([2]; 320 g/ha) | Post-emergence action against LOLRI in % (Lolium rigidum (LOLRI); dosage 80 g/ha) | Post-emergence action against LOLRI in % (Lolium rigidum (LOLRI); dosage 320 g/ha) | Post-emergence action against AVEFA in % (Avena fatua (AVEFA); 80 g/ha) | Post-emergence action against AVEFA in % (Avena fatua (AVEFA); 320 g/ha) | Post-emergence action against POLCO in % ([3]; dosage 320 g/ha) | Post-emergence action against ALOMY in % ([4]; 320 g/ha) | Post-emergence action against VERPE in % ([5]; 320 g/ha, VERPE) | Post-emergence action against VERPE in % ([5]; dosage 80 g/ha) | Post-emergence action against ECHCG in % ([6]; dosage 320 g/ha) | Post-emergence action against SETVI in % (Setaria viridis (SETVI); dosage 80 g/ha) | Post-emergence action against SETVI in % (Setaria viridis (SETVI); dosage 320 g/ha) | Post-emergence action against PHBPU in % ([8]; dosage 320 g/ha) | Post-emergence action against DIGSA in % ([2]; 80 g/ha) | Post-emergence action against MATIN in % ([9]; dosage 320 g/ha) | Post-emergence action against ECHCG in % ([6]; dosage 80 g/ha) | further results |
| --- | --- | --- | --- | --- | --- | --- | --- | --- | --- | --- | --- | --- | --- | --- | --- | --- | --- | --- | --- | --- | --- |
| 0% |  | COC(=O)C(C)COC(=O)[C@@H](C)Oc1nn(-c2ccccn2)c(-c2ccc(F)nc2)c1Cl (some centres unmarked) [Example I-267] | 90% | 90% | 90% | 90% | 100% | 90% | 90% | 80% | 90% | 90% | 90% | 90% | 90% | 90% | 90% |  |  |  | Post-emergence action against AMARE in % [1, 10]: 80%; Post-emergence action against AMARE in % [1, 11]: 80%; Post-emergence action against POLCO in % ([3]; dosage 80 g/ha): 80%; Post-emergence action against ABUTH in % ([7]; 80 g/ha): 80%; Post-emergence action against ABUTH in % ([7]; 320 g/ha): 90%; Post-emergence action against ZEAMX in % (Zea mays (ZEAMX)): 20% |
| 0% | 0% | CC(C)OC(=O)COc1nn(-c2ncccc2F)c(-c2ccc(F)nc2)c1C1CC1 [Example I-328] | 80% | 90% | 90% | 90% | 90% | 90% | 90% | 90% | 90% | 90% | 90% | 90% | 90% | 90% | 90% | 90% |  | 90% | Post-emergence action against AMARE in % [1, 10]: 90%; Post-emergence action against AMARE in % [1, 11]: 90%; Post-emergence action against POLCO in % ([3]; dosage 80 g/ha): 90%; Post-emergence action against ALOMY in % ([4]; 80 g/ha): 90%; Post-emergence action against ABUTH in % ([7]; 80 g/ha): 80%; Post-emergence action against ABUTH in % ([7]; 320 g/ha): 80%; Post-emergence action against ZEAMX in % (Zea mays (ZEAMX)): 0%; Post-emergence action against PHBPU in % ([8]; dosage 80 g/ha): 90% |
| 10% | 0% | O=C(COc1nn(-c2ncccc2F)c(-c2ccc(F)nc2)c1C1CC1)OCC1COC1 [Example I-264] | 90% | 90% | 80% | 90% | 90% | 80% | 90% |  | 90% | 90% | 80% | 90% | 90% | 90% | 80% | 80% | 80% | 90% | Post-emergence action against ORYSA in % (Oryza sativa (ORYSA); [13]): 10%; Post-emergence action against ZEAMX in % (Zea mays (ZEAMX)): 20%; Post-emergence action against PHBPU in % ([8]; dosage 80 g/ha): 80% |
| 20% |  | COC(=O)COc1nn(-c2ncccc2F)c(-c2ccc(F)nc2)c1Cl [Example I-304] | 80% | 90% | 90% |  | 90% |  | 90% |  | 90% | 90% | 80% | 90% | 90% | 90% | 90% | 90% | 90% | 80% | Post-emergence action against AMARE in % [1, 10]: 80%; Post-emergence action against AMARE in % [1, 11]: 90%; Post-emergence action against MATIN in % ([9]; dosage 80 g/ha): 90%; Post-emergence action against ABUTH in % ([7]; 80 g/ha): 80%; Post-emergence action against ABUTH in % ([7]; 320 g/ha): 90%; Post-emergence action against PHBPU in % ([8]; dosage 80 g/ha): 80% |
